Our source for the MIC values is patent EP0013067A1, “Bicyclic beta-lactam antibacterial agents, their use in pharmaceutical compositions, processes for their preparation and intermediates for use in such processes” (BEECHAM GROUP PLC, priority 1978, dated 1980).

As usually defined, the MIC is the lowest concentration that inhibits growth of the organism.

Format in all cases: cell-based
The test system of experiment [1] is Streptococcus pneumoniae CN33. The experiment can be described thus: MIC, DST agar + 10% horse blood. As to conditions: Streptococcus pneumoniae CN33; DST agar + 10% horse blood; inoculum 0.001 ml of a 10^-2 dilution for G + ve bacteria or a 10^-4 dilution for G - ve organisms; read-out: MIC Agar. The source says:
(§1) The ninimum inhibitory concentrations (MIC) cf this compound required to inhibit the growth of various bacteria are tabulated balow: […]

The test system of experiment [2] is E. coli ESS. The experiment can be described thus: MIC, DST agar + 10% horse blood. As to conditions: Escherichia coli, inoculum 0.001 ml of a 10^-2 dilution for G + ve bacteria or a 10^-4 dilution for G - ve organisms.
Text: as §1

The subject of experiment [3] is Citrobacter freundii E8. The experiment can be described thus: MIC, DST agar + 10% horse blood. Particulars: Citrobacter freundii E8; DST agar + 10% horse blood; inoculum 0.001 ml of a 10^-2 dilution for G + ve bacteria or a 10^-4 dilution for G - ve organisms; read-out: MIC Agar.
Text: as §1

In experiment [4] the test system is Enterobacter cloacae N1. The experiment can be described thus: MIC, DST agar + 10% horse blood. As to conditions: Enterobacter cloacae N1; DST agar + 10% horse blood; inoculum 0.001 ml of a 10^-2 dilution for G + ve bacteria or a 10^-4 dilution for G - ve organisms; read-out: MIC Agar.
Text: as §1

The test system of experiment [5] is Escherichia coli JT 39. The experiment can be described thus: MIC, DST agar + 10% horse blood. Particulars: JT39; Escherichia coli JT 39; DST agar + 10% horse blood; inoculum 0.001 ml of a 10^-2 dilution for G + ve bacteria or a 10^-4 dilution for G - ve organisms; read-out: MIC Agar.
Text: as §1

For experiment [6], the system named is Staphylococcus aureus Oxford. The experiment can be described thus: MIC, microtitre using Nutrient broth. As to conditions: Staphylococcus aureus Oxford; Microtitre using nutrient broth; inoculum 0.001 ml of a 10^-2 dilution for G + ve bacteria or a 10^-4 dilution for G - ve organisms; read-out: MIC Broth.
Text: as §1

The subject of experiment [7] is Enterobacter cloacae N1. The experiment can be described thus: MIC, microtitre using Nutrient broth. As to conditions: Microtitre using nutrient broth, inoculum 0.001 ml of a 10^-2 dilution for G + ve bacteria or a 10^-4 dilution for G - ve organisms.
Text: as §1

The test system of experiment [8] is Staphylococcus aureus 1517. The experiment can be described thus: MIC, microtitre using Nutrient broth. As to conditions: inoculum 0.001 ml of a 10^-2 dilution for G + ve bacteria or a 10^-4 dilution for G - ve organisms.
Text: as §1

Consider `O=C(O)C1=C(CO)SC2CC(=O)N12` (stereo not shown) [compound 19, Sodium 2-Hydroxymethyl penem-3-carboxylate], for which the MIC turned out to be 1 µg/mL in experiment [1]; 10 µg/mL in experiment [2]; 10 µg/mL in experiment [3]; 50 µg/mL in experiment [4]; 10 µg/mL in experiment [5]; 4 µg/mL in experiment [6].
Turning to `CC(=O)OCC1=C(C(=O)O)N2C(=O)CC2S1` (stereo not shown) [compound 21, Sodium 2-Acetoxymethyl penem-3-carboxylate], the MIC amounted to 0.5 µg/mL in experiment [1]; 10 µg/mL in experiment [2]; 10 µg/mL in experiment [3]; 100 µg/mL in experiment [4]; 50 µg/mL in experiment [5]; 62 µg/mL in experiment [7]. In addition, the MIC in experiment [8] was 8 µg/mL.
